Nine compounds from patent US20220220106A1, “QUINOLINE COMPOUNDS AND PHARMACEUTICAL COMPOSITIONS AND USES THEREOF” (Academy of Military Medical Sciences, priority 2019, published 2022) can be followed below.

One assay concerns the target T1, mTOR kinase (Homo sapiens, UniProt P42345).
T1 construct: purchased Thermo Fisher PV4753
The experiment in a line: In vitro inhibitory activity on mTOR kinase (TR-FRET, GFP-4E-BP1 substrate). The conditions noted are these: for IC50: 0.5 μg/mL mTOR, 0.4 μM GFP-4E-BP1, 3 μM ATP. It counts as biochemical. On the procedure: Preparation of Reaction Buffers:
Basic buffer composition: 50 mM (mmol/L) HEPES (pH 7.5), 1 mM EGTA, 0.01% Tween-20, 10 mM MnCl2, 2 mM DTT (diluted from 500 mM before used).
(2) mTOR kinase buffer solution: 1650 μL of 2.5×mTOR kinase buffer solution was composed of 1640.2 μL of 1× basic buffer and 9.8 μL of mTOR (0.21 mg/mL stock solution), and the final concentration was 0.5 μg/mL.
(3) Detection buffer solution: 3960 μL of 2× detection buffer solution was composed of 3797.1 μL of TR-FRET buffer diluent (purchased from Thermo Fisher, catalog number: PV3574), 4.5 μL of Tb-anti-p4E-BP1 antibody (3.49 μM stock solution, purchased from Thermo Fisher, catalog number: PV4757) and 158 μL of EDTA (500 mM stock solution), and the final concentrations were 2 nM Tb-anti-p4E-BP1 antibody and 10 mM EDTA.
(1) 20 μL of 100% DMSO solution containing 5 mM compound to be tested was added to a 96-well plate.
(2) The compound was serially diluted 3 times in DMSO.
(3) 1 μL of the compound in the previous step was taken, diluted with 19 μL of mTOR kinase buffer, and transferred to another 96-well plate.
(4) 4 μL of mTOR kinase solution (purchased from Thermo Fisher, catalog number: PV4753) was added to a 384-well plate.
(5) 2 μL of the compound in G was taken out and added to the 384-well plate with mTOR kinase, and incubated at room temperature for 15 minutes.
(6) 4 μL of substrate solution was added to initiate the reaction.
The final concentrations of mTOR reaction solution were: 0.5 μg/mL mTOR, 0.4 μM GFP-4E-BP1, 3 μM ATP.
The final concentration of the DMSO solution was 1%.
(7) Incubation was performed for 60 minutes at room temperature.
(8) 10 μL of detection buffer was added. The final concentrations were 2 nM Tb-anti-p4E-BP1 antibody and 10 mM EDTA.
(9) Incubation was performed for 30 minutes at room temperature.
(10) TR-FRET value was read on MD5 multi-mode plate reader (Molecular Devices). The excitation wavelength was 340 nm, the emission wavelength 1 was 495 nm, and the emission wavelength 2 was 520 nm. The ratio of 520 nm/495 nm readings was calculated as TR-FRET value.
IC50 of compound was fitted by nonlinear regression equation:
Y=Bottom+(Top-Bottom)/(1+10^((LogIC50-X)*HillSlope));
X: common logarithm value of compound concentration; Y: TR-FRET value (520 nm/495 nm).

The target in a further assay is T2, mTORC1 (Homo sapiens, UniProt P42345).
T2 construct: endogenous in cells; host or cells: RD cells
Nature of the assay: Western blot, phosphorylation of Thr389 of p70S6K1 in RD cells (mTORC1 inhibition). It counts as cell-based. The conditions noted are these: 20 μM, 2 hours, Western blot (FIG. 1). On the procedure:
In order to test the inhibitory activity of the synthesized compounds on the two mTOR complexes, the inhibitory activity experiments of mTORC1 and mTORC2 were carried out. Since mTORC1 and mTORC2 exerted their function by activating the phosphorylation of downstream substrates, the inhibitory activity of the compounds on mTORC1 and mTORC2 could be determined by detecting the phosphorylation levels of the Thr389 site of mTORC1 downstream substrate p70S6K1 and the Ser473 site of mTORC2 downstream substrate Akt.
Pretreatment of Compound:
(1) RD cells were cultured in DMEM medium containing 10% FBS and 1×PS (penicillin and streptomycin were at concentrations 100 IU and 100 μg/mL, respectively) at 37° C. and 5% CO2.
(2) The RD cells (5×10^5 cells/2 mL medium) were inoculated into a 6-well plate and incubated at 37° C. and 5% CO2 for 24 hours.
(3) The cells were washed once with PBS, and the cells were cultured in serum-free medium without nutrients overnight.
(4) Formulation of compounds: […]
Preparation of insulin medium: Insulin was diluted in DMEM medium containing 10% FBS and 1×PS so that the final concentration of insulin was 167 nM.
Pretreatment of compound to be tested: The compound was dissolved in DMSO so that the concentration of the test compound was 20 mM, and the compound was diluted in 167 nM insulin medium to reach a concentration of 20 μM.
Preparation of rapamycin solution: Rapamycin was dissolved in DMSO to a concentration of 10 mM, and the rapamycin was diluted in 167 nM insulin medium to reach a concentration of 20 μM.
(5) The serum-free medium in each well was removed.
(6) 2 mL of complete medium containing DMSO was added to each well as a control carrier. The final concentration of DMSO was 0.2%.
(7) 2 mL of 20 μM rapamycin solution and 20 μM the compound to be tested were added to the designated wells, respectively. The final concentration of DMSO was 0.2%.
(8) The cells were incubated for 2 hours at 37° C. and 5% CO2.
Protein extraction and concentration determination:
(1) The cells were washed once with refrigerated PBS, and then the PBS was discarded.
(2) 150 μL of cell extraction buffer (RIPA, […], catalog number: C1053) was transferred into each well to lyse the cells, and then the resulting cell solution were incubated on ice for 30 minutes.
(3) Centrifugation was performed at 14000 rpm (13000× g) for 30 minutes at 4° C.
(4) The supernatant was transferred into a new eppendorf tube, and the cell lysate was stored at −80° C. before testing.
(5) The protein concentration was determined by BCA method.
Preparation of Buffer Solutions:
(1) 100× Protease inhibitor (Beyotime, catalog number: P1005): 1 mL of redistilled water was added to the protease inhibitor and stirred gently until the solid was completely dissolved.
(2) Lysis Buffer: […] of 100× protease inhibitor and 2× phosphatase inhibitor Cocktails PhosSTOP (Beyotime, catalog number: P1082) were added to 100 mL of the cell extract, and stirred gently until it was completely dissolved.
(3) Electrophoresis Running Buffer:
10×MOPS buffer: 52.33 g of MOPS, 30.29 g of Tris base, 10 mL of 0.5 mol/L EDTA (pH 8.5) and 5 g of SDS was dissolved in 400 mL of redistilled water, stirred to dissolve, and the pH was adjusted to 7.5, then redistilled water was added again to reach a volume of 500 mL; 1×MOPS: 100 mL of 10×MOPS was diluted with redistilled water to 1000 mL.
(4) 1× Transfer Buffer: […] of 10× transfer buffer (144 g of glucine, 30.3 g of trisbase, and distilled water were mixed to reach a volume of 1 L) and 400 mL of methanol were dissolved in 1500 mL of redistilled water, and then the redistilled water was added to reach a volume of 2000 mL. […]

In the case of `COc1ncc(-c2ccc3ncc4ccc(=O)n(-c5cccc(C(F)(F)F)c5)c4c3c2)cn1` [HTL-7-06, 9-[5-(2-methoxy)pyrimidyl]-2-oxo-1-[3-(trifluoromethyl)phenyl]-1,2-dihydrobenzo[h][1,6]naphthyridine], on mTOR kinase, the “inhibitory activity on mTOR kinase, in words” value (from here on “inhibitory activity”) was “excellent inhibitory activity” and the IC50 is 4.82 nM. Also, the “p70 phosphorylation expression level” value on mTORC1 is reported as “significantly down-regulate”.
`CCCCC(=O)Nc1ccc(-c2ccc3ncc4ccc(=O)n(-c5cccc(C(F)(F)F)c5)c4c3c2)cn1` [HTL-7-08, 9-[3-(6-valerylamino)pyridyl]-2-oxo-1-[3-(trifluoromethyl)phenyl]-1,2-dihydrobenzo[h][1,6]naphthyridine] gave a concentration for half-maximal inhibition (IC50) on mTOR kinase of 76.6 nM. For the same compound, at mTORC1, the “p70 phosphorylation expression level” value is on record as “significantly down-regulate”.
For `O=C(Cc1ccccc1)Nc1ccc(-c2ccc3ncc4ccc(=O)n(-c5cccc(C(F)(F)F)c5)c4c3c2)cn1` [HTL-7-10, 9-[3-(6-phenylacetylamino)pyridyl]-2-oxo-1-[3-(trifluoromethyl)phenyl]-1,2-dihydrobenzo[h][1,6]naphthyridine] the same measures were 34.8 nM and “significantly down-regulate”.
For `COc1ccc(CC(=O)Nc2ccc(-c3ccc4ncc5ccc(=O)n(-c6cccc(C(F)(F)F)c6)c5c4c3)cn2)cc1` [HTL-7-11, 9-{3-[6-(4-methoxy)phenylacetylamino]pyridyl}-2-oxo-1-[3-(trifluoromethyl)phenyl]-1,2-dihydrobenzo[h][1,6]naphthyridine] the same measures were 32.5 nM and “significantly down-regulate”.
Taken in the same sequence, the figures for `O=c1ccc2cnc3ccc(C4=CCC5(CC4)OCCO5)cc3c2n1-c1cccc(C(F)(F)F)c1` [HTL-7-13, 9-(1,4-dioxa-spiro[4.5]dec-7-en-8-yl)-2-oxo-1-[3-(trifluoromethyl)phenyl]-1,2-dihydrobenzo[h][1,6]naphthyridine] were 86.1 nM and “significantly down-regulate”.
On to `O=C(Nc1ccc(-c2ccc3ncc4ccc(=O)n(-c5cccc(C(F)(F)F)c5)c4c3c2)cn1)OCc1ccccc1` [HTL-7-14, 9-[3-(6-benzyloxyamido)pyridyl]-2-oxo-1-[3-(trifluoromethyl)phenyl]-1,2-dihydrobenzo[h][1,6]naphthyridine], for which, on mTOR kinase, the “inhibitory activity” value is given as “moderate inhibitory activity” and 306 nM corresponded to half-maximal inhibition (IC50). In addition, the “p70 phosphorylation expression level” value at mTORC1 is on record as “significantly down-regulate”.
In the case of `O=C(Nc1ccc(-c2ccc3ncc4ccc(=O)n(-c5cccc(C(F)(F)F)c5)c4c3c2)cn1)Oc1ccccc1` [HTL-7-15, 9-[3-(6-phenoxyamido)pyridyl]-2-oxo-1-[3-(trifluoromethyl)phenyl]-1,2-dihydrobenzo[h][1,6]naphthyridine], on mTOR kinase, the midpoint of inhibition, the IC50, lay at 25 nM. For the same compound, the “p70 phosphorylation expression level” value on mTORC1 is on record as “significantly down-regulate”.
Turning to `CN(C)c1ccc(-c2ccc3ncc4ccc(=O)n(-c5cccc(C(F)(F)F)c5)c4c3c2)cn1` [HTL-7-16, 9-[3-(6-N,N-dimethyl)pyridyl]-2-oxo-1-[3-(trifluoromethyl)phenyl]-1,2-dihydrobenzo[h][1,6]naphthyridine], at mTOR kinase, the “inhibitory activity” value is reported as “excellent inhibitory activity” and the IC50 turned out to be 8.91 nM. In addition, on mTORC1, the “p70 phosphorylation expression level” value is recorded as “significantly down-regulate”.
As for `CN1CCN(c2ccc(-c3ccc4ncc5ccc(=O)n(-c6cccc(C(F)(F)F)c6)c5c4c3)cn2)CC1` [HTL-7-17, 9-{3-[6-(4-methylpiperazin-1-yl)pyridyl]}-2-oxo-1-[3-(trifluoromethyl)phenyl]-1,2-dihydrobenzo[h][1,6]naphthyridine], on mTOR kinase, the “inhibitory activity” value is recorded as “excellent inhibitory activity” and the IC50 stood at 1.15 nM. Besides, on mTORC1, the “p70 phosphorylation expression level” value is given as “significantly down-regulate”.
